The values that follow come from patent US7560470B2, “Heterocyclyl-3-sulfonylindazoles as 5-hydroxytryptamine-6 ligands” (Wyeth, priority 2003, dated 2009).

Where a name gives a salt, the structure may show the parent alone. Some results are limits rather than exact numbers.

Test system in the first data set: not given
Assay: not given
Conditions: not given
As usually defined, the melting point is the temperature, or range, at which the solid turns liquid. For `CN1CCN(c2ccc3[nH]nc(S(=O)(=O)c4ccc(Cl)s4)c3c2)CC1` [Example 15], the melting point is above 250 °C. On the same count and under the same terms, to `CN1CCN(c2ccc3[nH]nc(S(=O)(=O)c4ccc(Br)cc4)c3c2)CC1` [Example 17] belongs above 250 °C.

Turning to `CN1CCN(c2ccc3[nH]nc(S(=O)(=O)c4ccccc4F)c3c2)CC1` [Example 18], the melting point lay within 160 to 161 °C. Same read-out and setting: to `CN1CCN(c2ccc3[nH]nc(S(=O)(=O)c4cccc(F)c4)c3c2)CC1` [Example 19] belongs above 250 °C; to `O=S(=O)(c1ccccc1)c1nn(-c2cccc(C(F)(F)F)c2)c2ccc(N3CCN(Cc4ccccc4)CC3)cc12` [Example 28], 146 to 150 °C. `O=S(=O)(c1ccccc1)c1nn(CCc2ccccc2)c2ccc(N3CCNCC3)cc12` [Example 31] displayed a melting point of 127 to 130 °C.

For `O=S(=O)(c1ccccc1)c1nn(-c2ccc(C(F)(F)F)cc2)c2ccc(N3CCNCC3)cc12` [Example 33], the melting point fell in the range of 170 to 172 °C. The same measure, in the same setting: to `COc1cccc(-n2nc(S(=O)(=O)c3ccccc3)c3cc(N4CCNCC4)ccc32)c1` [Example 36] belongs 132 to 135 °C.

The target in a further data set is T1, human cloned 5-HT6 receptors (Homo sapiens, UniProt P50406).
T1 construct: expressed in transfected cells; host or cells: HeLa cells (membrane preparation)
T1 sequence (P50406 whole entry): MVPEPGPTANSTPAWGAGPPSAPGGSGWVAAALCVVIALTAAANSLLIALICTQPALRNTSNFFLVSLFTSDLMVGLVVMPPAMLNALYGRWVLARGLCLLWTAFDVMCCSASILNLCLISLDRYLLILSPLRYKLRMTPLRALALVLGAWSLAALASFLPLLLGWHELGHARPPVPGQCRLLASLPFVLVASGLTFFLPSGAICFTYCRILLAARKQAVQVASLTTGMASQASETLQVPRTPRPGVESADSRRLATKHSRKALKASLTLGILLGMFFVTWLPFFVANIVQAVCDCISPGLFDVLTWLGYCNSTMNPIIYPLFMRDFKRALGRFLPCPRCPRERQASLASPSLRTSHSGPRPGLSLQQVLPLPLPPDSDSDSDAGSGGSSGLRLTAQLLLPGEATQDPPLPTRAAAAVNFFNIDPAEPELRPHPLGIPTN
The data set can be described thus: 5-HT6 binding affinity, [3H]-LSD displacement on membranes of Hela cells expressing human cloned 5-HT6 receptors. The note with it: 5-HT6 Binding Ki, [3H]-LSD 3.0 nM, Hela cell membranes, 120 min at room temperature. On the procedure: The affinity of test compounds for the serotonin 5-HT6 receptor is evaluated in the following manner. Cultured Hela cells expressing human cloned 5-HT6 receptors are harvested and centrifuged at low speed (1,000×g) for 10.0 min to remove the culture media. The harvested cells are suspended in half volume of fresh physiological phosphate buffered saline solution and recentrifuged at the same speed. This operation is repeated. The collected cells are then homogenized in ten volumes of 50 mM Tris.HCl (pH 7.4) and 0.5 mM EDTA. The homogenate is centrifuged at 40,000×g for 30.0 min and the precipitate is collected. The obtained pellet is resuspended in 10 volumes of Tris.HCl buffer and recentrifuged at the same speed. The final pellet is suspended in a small volume of Tris.HCl buffer and the tissue protein content is determined in aliquots of 10-25 μl volumes. Bovine Serum Albumin is used as the standard in the protein determination according to the method described in Lowry et al., J. Biol. Chem., 193:265 (1951). The volume of the suspended cell membranes is adjusted to give a tissue protein concentration of 1.0 mg/ml of suspension. The prepared membrane suspension (10 times concentrated) is aliquoted in 1.0 ml volumes and stored at −70° C. until used in subsequent binding experiments.
Binding experiments are performed in a 96 well microtiter plate format, in a total volume of 200 μl. […] The test compounds are added in 20.0 μl volume.
The reaction is allowed to proceed in the dark for 120 min at room temperature, at which time, the bound ligand-receptor complex is filtered off on a 96 well unifilter with a Packard Filtermate® 196 Harvester. The bound complex caught on the filter disk is allowed to air dry and the radioactivity is measured in a Packard TopCount® equipped with six photomultiplier detectors, after the addition of 40.0 μl Microscint®−20 scintillant to each shallow well. The unifilter plate is heat-sealed and counted in a PackardTopCount® with a tritium efficiency of 31.0%.
Binding in the presence of varying concentrations of test compound is expressed as a percentage of specific binding in the absence of test compound. The results are plotted as log % bound versus log concentration of test compound. Nonlinear regression analysis of data points with a computer assisted program Prisms® yields both the IC50 and the Ki values of test compounds with 95% confidence limits.
The amount of displacement by the test compound is given in percent (%) inhibition and is derived from the following equation:
[formula] where B0 is the amount of CPM bound in the presence of the testing agent. NSB represents the CPM bound in the presence of a saturating concentration of a displacer and TB represents the total amount of CPM bound at zero (0) concentration of test compound.
Alternatively, a linear regression line of data points is plotted, from which the IC50 value is determined and the Ki value is determined based upon the following equation: Ki=IC50/(1+L/KD) where L is the concentration of the radioactive ligand used and KD is the dissociation constant of the ligand for the receptor, both expressed in nM.
What is called Ki is a measure of affinity in units of concentration, obtained from inhibition or displacement. The molecule `CCCCn1nc(S(=O)(=O)c2cccc3ccccc23)c2cc(N3CCN(C)CC3)ccc21` [Example 48] yielded a Ki of 4 nM. Turning to `CN1CCN(c2ccc3[nH]nc(S(=O)(=O)c4cccs4)c3c2)CC1` [Example 54], the Ki came out at 8 nM.

The same data set, now with this note: [3H]-LSD 3.0 nM, Hela cell membranes, 120 min at room temperature; read-out: 5-HT6 Binding Ki.
Consider `O=S(=O)(c1ccccc1)c1n[nH]c2ccc(N3CCN(Cc4ccccc4)CC3)cc12` [Example 4, 5-(4-Benzylpiperazin-1-yl)-3-(phenylsulfonyl)-1H-indazole hydrochloride], for which the Ki was 86 nM. Take `COc1cc2[nH]nc(S(=O)(=O)c3ccccc3)c2cc1N1CCN(Cc2ccccc2)CC1` [Example 7, 5-(4-Benzylpiperazin-1-yl)-6-methoxy-3-(phenylsulfonyl)-1H-indazole hydrochloride]: the Ki was 113 nM. On the same count and under the same terms, to `COc1cc2c(cc1N1CCN(Cc3ccccc3)CC1)c(S(=O)(=O)c1ccccc1)nn2-c1ccccc1` [Example 8, 5-(4-Benzylpiperazin-1-yl)-6-methoxy-1-phenyl-3-(phenylsulfonyl)-1H-indazole hydrochloride] belongs 399 nM. On the same count and under the same terms, to `COc1cc2c(cc1N1CCNCC1)c(S(=O)(=O)c1ccccc1)nn2-c1ccccc1` [Example 9, 6-Methoxy-1-phenyl 3-(phenylsulfonyl)-5-piperazin-1-yl-1H-indazole hydrochloride] belongs 97 nM. The same measure, in the same setting: to `COc1cc2c(cc1N1CCNCC1)c(S(=O)(=O)c1ccccc1)nn2-c1ccc(C(F)(F)F)cc1` [Example 10, 6-Methoxy-3-(phenylsulfonyl)-5-(piperazin-1-yl)-1-[4-(trifluoromethyl)phenyl]-1H-indazole hydrochloride] belongs 224 nM. As to `CCn1nc(S(=O)(=O)c2ccccc2)c2cc(N3CCN(Cc4ccccc4)CC3)ccc21` [Example 12, 5-(4-Benzylpiperazin-1-yl)-1-ethyl-3-(phenylsulfonyl)-1H-indazole dihydrochloride], the Ki stood at 64 nM. `CN1CCN(c2ccc3[nH]nc(S(=O)(=O)c4cccc5ccccc45)c3c2)CC1` [Example 14]: the Ki was found to be 1 nM.

In the case of `CN1CCN(c2ccc3[nH]nc(S(=O)(=O)c4ccc(Cl)s4)c3c2)CC1` [Example 15], the Ki amounted to 2 nM. Same read-out and setting: to `CN1CCN(c2ccc3[nH]nc(S(=O)(=O)c4ccc(Br)cc4)c3c2)CC1` [Example 17] belongs 7 nM; to `CN1CCN(c2ccc3[nH]nc(S(=O)(=O)c4ccccc4F)c3c2)CC1` [Example 18], 6 nM.

With `CN1CCN(c2ccc3[nH]nc(S(=O)(=O)c4cccc(F)c4)c3c2)CC1` [Example 19], the Ki was found to be 2 nM. As to `O=S(=O)(c1ccccc1)c1nn(-c2cccc(C(F)(F)F)c2)c2ccc(N3CCN(Cc4ccccc4)CC3)cc12` [Example 28], the Ki is 136 nM.

On to `O=S(=O)(c1ccccc1)c1nn(CCc2ccccc2)c2ccc(N3CCNCC3)cc12` [Example 31], for which the Ki amounted to 3 nM. On the same count and under the same terms, to `O=S(=O)(c1ccccc1)c1nn(-c2ccc(C(F)(F)F)cc2)c2ccc(N3CCNCC3)cc12` [Example 33] belongs 19 nM; to `COc1cccc(-n2nc(S(=O)(=O)c3ccccc3)c3cc(N4CCNCC4)ccc32)c1` [Example 36], 20 nM. On to `CCCn1nc(S(=O)(=O)c2cccc3ccccc23)c2cc(N3CCN(C)CC3)ccc21` [Example 45], for which the inhibitory constant (Ki) came to 2 nM. Same read-out and setting: to `CN1CCN(c2ccc3c(c2)c(S(=O)(=O)c2cccc4ccccc24)nn3C)CC1` [Example 47] belongs 2 nM; to `CN1CCN(c2ccc3c(c2)c(S(=O)(=O)c2cccc4ccccc24)nn3Cc2cccc(Cl)c2)CC1` [Example 49], 6 nM; to `CC(C)n1nc(S(=O)(=O)c2cccc3ccccc23)c2cc(N3CCN(C)CC3)ccc21` [Example 50], 2 nM. Consider `CC(C)Cn1nc(S(=O)(=O)c2cccc3ccccc23)c2cc(N3CCN(C)CC3)ccc21` [Example 51], for which the Ki was 1 nM. Still for that read-out and setting: to `CN1CCN(c2ccc3c(c2)c(S(=O)(=O)c2cccc4ccccc24)nn3Cc2ccccc2)CC1` [Example 52] belongs 2 nM. Regarding `O=S(=O)(c1cccc2ccccc12)c1n[nH]c2ccc(N3CCNCC3)cc12` [Example 53], the Ki is 1 nM. As for `Cc1ccc(S(=O)(=O)c2n[nH]c3ccc(N4CCN(C)CC4)cc23)cc1` [Example 56], the Ki came out at 5 nM.

`CN1CCN(c2ccc3[nH]nc(S(=O)(=O)c4ccccc4F)c3c2)CC1` [Example 58]: the Ki stood at 3 nM. For the molecule `CN1CCN(c2ccc3[nH]nc(S(=O)(=O)c4ccc(F)cc4)c3c2)CC1` [Example 60], the Ki amounted to 5 nM. Same read-out and setting: to `COc1cccc(S(=O)(=O)c2n[nH]c3ccc(N4CCN(C)CC4)cc23)c1` [Example 63] belongs 1 nM; to `COc1ccc(S(=O)(=O)c2n[nH]c3ccc(N4CCN(C)CC4)cc23)cc1` [Example 64], 12 nM; to `CN1CCN(c2ccc3[nH]nc(S(=O)(=O)c4ccccc4Cl)c3c2)CC1` [Example 65], 4 nM. For the molecule `CN1CCN(c2ccc3[nH]nc(S(=O)(=O)c4ccc(Cl)cc4)c3c2)CC1` [Example 67], the Ki stood at 8 nM. On the same count and under the same terms, to `CN1CCN(c2ccc3[nH]nc(S(=O)(=O)c4ccc(F)cc4F)c3c2)CC1` [Example 68] belongs 14 nM; to `CN1CCN(c2ccc3[nH]nc(S(=O)(=O)c4ccc(Cl)s4)c3c2)CC1` [Example 70], 3 nM.

Regarding `CC(C)c1ccc(S(=O)(=O)c2n[nH]c3ccc(N4CCN(C)CC4)cc23)cc1` [Example 71], the Ki worked out at 4 nM. As for `CN1CCN(c2ccc3[nH]nc(S(=O)(=O)c4ccc5ccccc5c4)c3c2)CC1` [Example 72], the Ki stood at 2 nM. Regarding `CCCCc1ccc(S(=O)(=O)c2n[nH]c3ccc(N4CCN(C)CC4)cc23)cc1` [Example 74], the Ki worked out at 26 nM. For `COc1ccc(Cl)cc1S(=O)(=O)c1n[nH]c2ccc(N3CCN(C)CC3)cc12` [Example 77], the Ki was 2 nM. Same read-out and setting: to `CN1CCN(c2ccc3[nH]nc(S(=O)(=O)c4ccc(S(C)(=O)=O)cc4)c3c2)CC1` [Example 80] belongs 62 nM; to `CN1CCN(c2ccc3[nH]nc(S(=O)(=O)c4ccccc4Br)c3c2)CC1` [Example 89], 10 nM; to `CN1CCN(c2ccc3[nH]nc(S(=O)(=O)c4c(Cl)cccc4Cl)c3c2)CC1` [Example 91], 6 nM. On to `CN1CCN(c2cc(Cl)cc3c(S(=O)(=O)c4ccc(F)cc4)n[nH]c23)CC1` [Example 97, 5-Chloro-3[(4-fluorophenyl)sulfonyl]-7-(4-methylpiperazin-1-yl)-1H-indazole], for which the Ki was 12 nM.

Regarding `CC(C)c1ccc(S(=O)(=O)c2n[nH]c3c(N4CCN(C)CC4)cc(Cl)cc23)cc1` [Example 98], the Ki amounted to 22 nM.

As to `CN1CCN(c2cc(Cl)cc3c(S(=O)(=O)c4cccc(C(F)(F)F)c4)n[nH]c23)CC1` [Example 99], the Ki was determined as 20 nM. Same read-out and setting: to `CN1CCN(c2cc(Cl)cc3c(S(=O)(=O)c4cccc5ccccc45)n[nH]c23)CC1` [Example 100] belongs 5 nM.

`CN1CCN(c2cccc3c(S(=O)(=O)c4cccc5ccccc45)n[nH]c23)CC1` [Example 101]: the Ki worked out at 5 nM.

The same data set, now with this note: test compound at 1 μM; displacement of [3H]-LSD.
Usually inhibition stands for how much of the control response was suppressed. A higher inhibition goes with strong suppression. As for `O=S(=O)(c1cccc(F)c1)c1n[nH]c2ccc(N3CCN(Cc4ccccc4)CC3)cc12` [Example 5, 5-(4-Benzylpiperazin-1-yl)-3-[(3-fluorophenyl)sulfonyl]-1H-indazole hydrochloride], the inhibition at 1 µM worked out at 53%. As to `Cn1nc(S(=O)(=O)c2ccccc2)c2cc(N3CCN(Cc4ccccc4)CC3)ccc21` [Example 11, 5-(4-Benzylpiperazin-1-yl)-1-methyl-3-(phenylsulfonyl)-1H-indazole], 1 µM produced 67% inhibition.
